Literature values as cited in US6172066A, “Dihydropyrimidines and uses thereof” (Synaptic Pharmaceutical Corporation, priority 1997, dated 2001).
Where two headings read alike, the source gives them in different places.

How the values were obtained:
[1] = in addition to its antihypertensive effects; cited from earlier work
[2] = cited from earlier work

SMILES	side effects of clonidine [1]	side effects in BPH treatment ([2]; patients with BPH)	usefulness in treating BPH ([2]; patients with BPH)	side effects in BPH treatment ([2]; in vivo)
Clc1cccc(Cl)c1N=C1NCCN1 [clonidine]	dry mouth and sedation	–	–	–
CC(COc1ccccc1)N(CCCl)Cc1ccccc1 (stereo not shown) [phenoxybenzamine]	–	significant side effects such as dizziness and asthenia	useful in relieving the symptoms of BPH	–
COc1cc2nc(N3CCN(C(=O)c4ccco4)CC3)nc(N)c2cc1OC [prazosin]	–	–	useful for treating BPH	untoward side effects
COc1cc2nc(N3CCN(C(=O)C4CCCO4)CC3)nc(N)c2cc1OC (stereo not shown) [terazosin]	–	untoward side effects	useful for treating BPH	–
